From patent US6610883B1, “Compounds having selective activity for retinoid X receptors, and means for modulation of processes mediated by retinoid X receptors” (Ligand Pharmaceuticals, Inc., priority 1992, dated 2003)
pEC50: −log10 of the molar value. Like-named read-outs stand apart in the source and are kept apart here.

Key:
Format in all cases: cell-based
RXRα = molecular target: T1, RXRα (Homo sapiens, UniProt P19793); assay: Co-transfection (cis-trans) assay in CV-1 cells, RXRα; design: Emax: dose or concentration left out as unconfirmed; conditions: for Emax at 10 µM: CV-1, maximal response relative to all-trans-retinoic acid at 10^−5 M, read-out: Efficacy
T1 construct: The first plasmid contains a retinoid receptor cDNA and directs constitutive expression of the encoded receptor; expressed in transfected cells; host or cells: CV-1 (monkey kidney)
T1 sequence (P19793 1-462): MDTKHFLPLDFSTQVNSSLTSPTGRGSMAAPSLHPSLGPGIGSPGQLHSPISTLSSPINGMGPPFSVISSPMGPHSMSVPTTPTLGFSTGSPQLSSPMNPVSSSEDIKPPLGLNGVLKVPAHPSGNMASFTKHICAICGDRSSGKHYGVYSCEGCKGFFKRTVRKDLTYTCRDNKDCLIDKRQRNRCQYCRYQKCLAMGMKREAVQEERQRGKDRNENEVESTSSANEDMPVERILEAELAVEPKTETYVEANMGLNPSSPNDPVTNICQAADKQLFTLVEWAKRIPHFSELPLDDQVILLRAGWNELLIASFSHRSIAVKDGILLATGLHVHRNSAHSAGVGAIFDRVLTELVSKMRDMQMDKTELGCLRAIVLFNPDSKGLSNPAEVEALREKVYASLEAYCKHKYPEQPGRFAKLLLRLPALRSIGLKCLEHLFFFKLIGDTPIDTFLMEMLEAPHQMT
Source text: (§1) The co-transfection assay provides a mechanism to evaluate the ability of a compound to modulate the transcription response initiated by an intracellular receptor. […] Berger, et al., J. Steroid Biochem Molec.
(§2) Briefly, the co-transfection assay involves the introduction of two plasmids by transient transfection into a retinoid receptor-negative mammalian cell background. The first plasmid contains a retinoid receptor cDNA and directs constitutive expression of the encoded receptor. The second plasmid contains a cDNA that encodes for a readily quantifiable protein, e.g., firefly luciferase or chloramphenicol acetyl transferase (CAT), under control of a promoter containing a retinoid acid response element, which confers retinoid dependence on the transcription of the reporter. In this co-transfection assay, all retinoid receptors respond to all-trans-retinoic acid in a similar fashion. This assay can be used to accurately measure efficacy and potency of retinoic acid and synthetic retinoids as ligands that interact with the individual retinoid receptor subtypes.
(§3) Accordingly, synthetic retinoid compounds of the current invention were evaluated for their interaction with retinoid receptor subtypes using the co-transfection assay in which CV-1 cells were co-transfected with one of the retinoid receptor subtypes, a reporter construct, and an internal control to allow normalization of the response for transfection efficiency. The following example is illustrative.
(§4) Retinoids: All-tans-retinoic acid (RA) and 13-cis-retinoic acid (13-cis-RA) were obtained from Sigma. […] Retinoids were dissolved in dimethylsulfoxide for use in the transcriptional activation assays.
(§5) Co-transfection Assay In CV-1 Cells: A monkey kidney cell line, CV-1, was used in the cis-trans assay. Cells were transfected with two plasmids. […] The cis-vector contains an easily assayable gene product, in this case the firefly luciferase, coupled to a retinoid-responsive promoter, i.e., an RARE or RXRE. Addition of retinoic acid or an appropriate synthetic retinoid results in the formation of a retinoid-RAR or -RXR complex that activates the expression of luciferase gene, causing light to be emitted from cell extracts. The level of luciferase activity is directly proportional to the effectiveness of the retinoid-receptor complex in activating gene expression. This sensitive and reproducible co-transfection approach permits the identification of retinoids that interact with the different receptor isoforms.
(§6) Cells were cultured in DMEM supplemented with 10% charcoal resin-stripped fetal bovine serum, and experiments were conducted in 96-well plates. […] Cells were transfected for 6 h and then washed to remove the precipitate. The cells were then incubated for 36 h with or without retinoid. After the transfection, all subsequent steps were performed on a Beckman Biomek Automated Workstation. […] All determinations were performed in triplicate in two independent experiments and were normalized for transfection efficiency by using β-galactosidase as the internal control. […] Efficacy values less than 5% are not statistically different than the 0% background.

RXRβ = molecular target: T2, RXRβ (Mus musculus, UniProt P28704); assay: Co-transfection (cis-trans) assay in CV-1 cells, RXRβ; conditions: for Emax at 10 µM: CV-1, maximal response relative to all-trans-retinoic acid at 10^−5 M, read-out: Efficacy
T2 construct: expressed in transfected cells; host or cells: CV-1 (monkey kidney)
T2 sequence (P28704 1-520): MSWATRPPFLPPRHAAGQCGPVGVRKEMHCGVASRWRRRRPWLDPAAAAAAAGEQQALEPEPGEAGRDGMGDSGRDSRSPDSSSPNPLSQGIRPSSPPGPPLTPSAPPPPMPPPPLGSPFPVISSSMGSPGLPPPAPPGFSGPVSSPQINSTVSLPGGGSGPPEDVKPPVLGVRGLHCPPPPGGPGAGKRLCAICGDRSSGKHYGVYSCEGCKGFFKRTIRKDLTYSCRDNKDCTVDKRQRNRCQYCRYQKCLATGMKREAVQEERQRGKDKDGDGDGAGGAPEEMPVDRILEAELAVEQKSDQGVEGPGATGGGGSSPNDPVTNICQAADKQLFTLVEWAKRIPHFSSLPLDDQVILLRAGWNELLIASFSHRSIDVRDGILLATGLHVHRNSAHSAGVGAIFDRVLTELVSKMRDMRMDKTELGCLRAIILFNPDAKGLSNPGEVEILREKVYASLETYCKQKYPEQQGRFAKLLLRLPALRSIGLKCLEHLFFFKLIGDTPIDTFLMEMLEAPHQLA
Source text: as §1, §2, §3, §4, §5, §6

RARβ = molecular target: T3, RARβ (Homo sapiens, UniProt P10826); assay: Co-transfection (cis-trans) assay in CV-1 cells, RARβ; design: expressed in transfected cells; host or cells: CV-1 (monkey kidney); conditions: for Emax at 10 µM: CV-1, maximal response relative to all-trans-retinoic acid at 10^−5 M, read-out: Efficacy; for pEC50: CV-1 cells, luciferase reporter, 36 h, read-out: Potency
T3 sequence (P10826 1-455): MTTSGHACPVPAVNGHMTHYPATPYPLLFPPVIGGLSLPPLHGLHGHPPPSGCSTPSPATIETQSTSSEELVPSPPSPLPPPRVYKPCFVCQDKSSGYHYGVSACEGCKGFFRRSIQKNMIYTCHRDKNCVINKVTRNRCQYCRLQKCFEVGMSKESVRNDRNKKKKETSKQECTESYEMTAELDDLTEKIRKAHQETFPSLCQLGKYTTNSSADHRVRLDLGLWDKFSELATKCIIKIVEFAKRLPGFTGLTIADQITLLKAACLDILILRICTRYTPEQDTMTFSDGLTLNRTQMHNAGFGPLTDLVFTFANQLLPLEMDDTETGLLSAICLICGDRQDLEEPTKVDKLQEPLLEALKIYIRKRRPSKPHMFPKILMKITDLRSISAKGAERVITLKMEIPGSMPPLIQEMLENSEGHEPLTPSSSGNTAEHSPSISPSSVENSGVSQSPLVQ
Source text: as §1, §2, §3, §4, §5, §6

[1] = RXRα, CV-1 cells, luciferase reporter, 36 h, read-out: Potency
[2] = RXRβ, CV-1 cells, luciferase reporter, 36 h, read-out: Potency

SMILES: Cc1cc2c(cc1C(=O)c1ccc(C(=O)Nc3ccc(O)cc3)cc1)C(C)(C)CCC2(C)C [3-Methyl-TTNCHBP, 4-[(3,5,5,8,8-pentamethyl-5,6,7,8-tetrahydro-2-naphthyl)carbonyl]-N-(4-hydroxyphenyl)benzamide]
- Emax at 10 µM (RXRα; RXRα): 113%
- pEC50 (RXRα; [1]): 5.96
- Emax at 10 µM (RXRβ; RXRβ): 155%
- pEC50 (RXRβ; [2]): 5.96
- Emax at 10 µM (RARβ): 7%
- pEC50 (RARβ): < 5.00

SMILES: CC(/C=C/C1(c2cc3c(cc2C)C(C)(C)CCC3(C)C)CC1)=C\C(=O)O [Compound 104, (2E,4E)-3-methyl-5-[1-(3,5,5,8,8-pentamethyl-5,6,7,8-tetrahydro-2-naphthyl)cyclopropyl]penta-2,4-dienoic acid]
- Emax at 10 µM (RXRα; RXRα): 75%
- pEC50 (RXRα; [1]): 8.30
- Emax at 10 µM (RXRβ; RXRβ): 133%
- pEC50 (RXRβ; [2]): 7.89
- Emax at 10 µM (RARβ): 5%
- pEC50 (RARβ): < 5.00

SMILES: CC1=C(C=CC2CCCCC2/C=C/C(C)=C/C(=O)O)C(C)(C)CCC1 (stereo not shown) [Compound 100, 3-methyl-5-(2-[2-(2,6,6-trimethylcyclohexen-1-yl)ethenyl]cyclohexyl)-2E,4E-pentadienoic acid]
- Emax at 10 µM (RXRα; RXRα): 63%
- pEC50 (RXRα; [1]): 6.91
- Emax at 10 µM (RXRβ; RXRβ): 54%
- pEC50 (RXRβ; [2]): 7.15
- Emax at 10 µM (RARβ): 5%
- pEC50 (RARβ): < 5.00

SMILES: C/C(=C/C=C/C(C)=C/C(=O)O)c1cc2c(cc1C)C(C)(C)CCC2(C)C [Compound 128, (2E,4E,6Z)-7-(3,5,5,8,8-pentamethyl-5,6,7,8-tetrahydro-2-naphthyl)-3-methyl-octa-2,4,6-trienoic acid]
- Emax at 10 µM (RXRα; RXRα): 108%
- pEC50 (RXRα; [1]): 7.96
- Emax at 10 µM (RXRβ; RXRβ): 154%
- pEC50 (RXRβ; [2]): 7.66
- Emax at 10 µM (RARβ): 40%
- pEC50 (RARβ): 6.74

SMILES: CC(/C=C/C=C(\c1ccc2c(c1)C(C)(C)CCC2(C)C)C(C)C)=C\C(=O)O [Compound 123, (2E,4E,6Z)-7-(5,5,8,8-tetramethyl-5,6,7,8-tetrahydro-2-naphthyl)-3,8-dimethyl-nona-2,4,6-trienoic acid]
- Emax at 10 µM (RXRα; RXRα): 90%
- pEC50 (RXRα; [1]): 7.62
- Emax at 10 µM (RXRβ; RXRβ): 105%
- pEC50 (RXRβ; [2]): 7.68
- Emax at 10 µM (RARβ): 55%
- pEC50 (RARβ): 7.12

SMILES: CC1=C(/C=C/C(=C\C=C\C(C)=C\C(=O)O)C(C)C)C(C)(C)CCC1 [Compound 75, 3-methyl-7-isopropyl-9-(2,6,6-trimethyl-1-cyclohexen-1-yl)-2E,4E,6Z,8E-nonatetranoic acid]
- Emax at 10 µM (RXRα; RXRα): 100%
- pEC50 (RXRα; [1]): 7.68
- Emax at 10 µM (RXRβ; RXRβ): 142%
- pEC50 (RXRβ; [2]): 7.74
- Emax at 10 µM (RARβ): 58%
- pEC50 (RARβ): 6.74

SMILES: CC1=C(/C=C/C(=C\C=C\C(C)=C\C(=O)O)C(C)(C)C)C(C)(C)CCC1 [Compound 77, 3-methyl-7-t-butyl-9-(2,6,6-trimethyl-1-cyclohexen-1-yl)-2E,4E,6Z,8E-nonatetranoic acid]
- Emax at 10 µM (RXRα; RXRα): 75%
- pEC50 (RXRα; [1]): 7.80
- Emax at 10 µM (RXRβ; RXRβ): 99%
- pEC50 (RXRβ; [2]): 7.96
- Emax at 10 µM (RARβ): 63%
- pEC50 (RARβ): 6.85

SMILES: C=C(c1ccc(C(=O)Nc2ccc(O)cc2)cc1)c1cc2c(cc1C)C(C)(C)CCC2(C)C [3-Methyl-TTNEHBP (63), 4-[1-(3,5,5,8,8-pentamethyl-5,6,7,8-tetrahydro-2-naphthyl)ethenyl]-N-(4-hydroxyphenyl)benzamide]
- Emax at 10 µM (RXRα; RXRα): 125%
- pEC50 (RXRα; [1]): 6.85
- Emax at 10 µM (RXRβ; RXRβ): 121%
- pEC50 (RXRβ; [2]): 7.15
- Emax at 10 µM (RARβ): 25%
- pEC50 (RARβ): 5.72

SMILES: C=C(c1ccc(C(=O)O)cc1)c1cc2c(cc1Br)C(C)(C)CCC2(C)C [3-Bromo-TTNEB, 4-[1-(3-bromo-5,5,8,8-tetramethyl-5,6,7,8-tetrahydro-2-naphthyl)ethenyl]benzoic acid]
- pEC50 (RXRα): 7.19
- Emax (RXRα; CV-1, read-out: Efficacy): 88%
- pEC50 (RXRβ): 7.27
- Emax at 10 µM (RARβ): 18%

SMILES: CCCC(=C/C=C/C(C)=C/C(=O)O)/C=C/C1=C(C)CCCC1(C)C [Compound 74, 3-methyl-7-propyl-9-(2,6,6-trimethyl-1-cyclohexen-1-yl)-2E,4E,6Z,8E-nonatetranoic acid]
- Emax at 10 µM (RXRα; RXRα): 78%
- pEC50 (RXRα; [1]): 7.96
- Emax at 10 µM (RXRβ; RXRβ): 91%
- pEC50 (RXRβ; [2]): 8.22
- Emax at 10 µM (RARβ): 50%
- pEC50 (RARβ): 7.42

SMILES: CC1=C(/C=C/C2(C/C=C/C(C)=C/C(=O)O)CC2)C(C)(C)CCC1 [Compound 110]
- Emax at 10 µM (RXRα; RXRα): 79%
- pEC50 (RXRα; [1]): 7.07
- Emax at 10 µM (RXRβ; RXRβ): 73%
- pEC50 (RXRβ; [2]): 7.15
- Emax at 10 µM (RARβ): 29%
- pEC50 (RARβ): 6.35
